Test results reported in patent US11623924B2, “Modulators of alpha-1 antitrypsin” (Vertex Pharmaceuticals Incorporated, priority 2018, dated 2023).

The compounds below were run against T1, NL20 human bronchial epithelial cells expressing human Z-AAT (Homo sapiens, UniProt P01009, E366K) (assay: AAT Function Assay (MSD Assay NL20-SI Cell Line)). Conditions: functionally active AAT (AAT-hNE complex) in supernatant of NL20 cells expressing human Z-AAT; read-out: NL20 Func. (EC50).
T1 construct: expressed in transfected cells; host or cells: NL20 human bronchial epithelial cells (NL20-SI line, doxycycline added)
T1 sequence (P01009 25-418 E366K): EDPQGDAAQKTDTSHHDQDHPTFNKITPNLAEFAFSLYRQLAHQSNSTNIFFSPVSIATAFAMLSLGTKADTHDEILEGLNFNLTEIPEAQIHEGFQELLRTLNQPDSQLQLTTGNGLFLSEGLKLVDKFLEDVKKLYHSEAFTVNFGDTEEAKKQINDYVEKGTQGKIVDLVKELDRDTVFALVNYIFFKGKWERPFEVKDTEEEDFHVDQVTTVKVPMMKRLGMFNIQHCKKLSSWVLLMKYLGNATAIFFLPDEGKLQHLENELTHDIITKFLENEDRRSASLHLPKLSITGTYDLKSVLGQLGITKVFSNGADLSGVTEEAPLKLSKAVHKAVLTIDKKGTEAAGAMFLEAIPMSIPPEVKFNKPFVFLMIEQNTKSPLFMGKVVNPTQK
Assay type: cell-based
Description: A. AAT Function Assay (MSD Assay NL20-SI Cell Line)
Alpha-1 antitrypsin (AAT) is a SERPIN (serine protease inhibitor) that inactivates enzymes by binding to them covalently. This assay measured the amount of functionally active AAT in a sample in the presence of the disclosed compounds 1-215 by determining the ability of AAT to form an irreversible complex with human neutrophil Elastase (hNE). In practice, the sample (cell supernatant, blood sample, or other) was incubated with excess hNE to allow AAT-Elastase complex to be formed with all functional AAT in the sample. This complex was then captured to a microplate coated with an anti-AAT antibody. The complex captured to the plate was detected with a labeled anti-Elastase antibody and quantitated using a set of AAT standards spanning the concentration range present in the sample. Meso Scale Discovery (MSD) plate reader, Sulfo-tag labeling, and microplates were used to provide high sensitivity and wide dynamic range.
• 1. Harvest NL20 human bronchial epithelial cells expressing human Z-AAT in OptiMEM™ containing Pen/Strep (P/S) • 2. Seed at 16,000 cells/well in 30 μL (384 well plate) • 3. Centrifuge plates briefly up to speed (1200 rpm) and place into 37° C. incubator overnight Day 2: Compound Addition and Coating Plates with Capture Antibody Compound Addition: • 1. Dispense 40 μL of OptiMEM™ (P/S) with doxycycline (1:1000 stock=0.1 μM final) to each well of the compound plate using a multidrop Combi in hood • 2. Remove cell plate from incubator, flip/blot and take immediately to Bravo to transfer compounds • 3. Return plates to incubator overnight Coat MSD Plates • 1. Dilute capture antibody (Polyclonal Goat anti-AAT) to 5 μg/mL (1:200) in PBS (no BSA). • 2. Dispense 25 μL of diluted capture antibody into all wells of MSD 384-well High Bind plate using the Multidrop equipped with a standard cassette. • 3. Incubate overnight at 4° C. Prepare Blocker A (BSA) Solutions • 1. Prepare solution of 5% MSD Blocker A (BSA) following the manufacturer's instructions. • 2. Further dilute the 5% MSD Blocker A in PBS to 1% (Blocker A) as needed. Day 3: Run MSD Assay
Block Plates • 1. Wash plate 1× with 50 μL Wash buffer (PBS+0.5% Tween 20), and adds 35 μL 5% Block A buffer to block non-specific binding on washer dispenser • 2. Rotate plates on shaker for 1 hour at 600 rpm
Prepare M-AAT Standards • 1. Dilute M-AAT stock to 1.6 μg/mL in 1% BSA Blocker A (Stock in −70° C.); then prepare 12×1:2 serial dilutions in 1% Blocker A • 2. The top starting final concentration on MSD plate is 320 ng/mL. These dilutions correspond to a final concentration of 320, 160, 80, 40, 20, 10, 5, 2.5, 1.25, 0.625, 0.312, 0.156 ng/mL.
Dilution Plate • 1. Add 80 μL of 1% Assay buffer to all wells except columns 1/24 (standards) with Multidrop Combi • 2. Add diluted standards to columns 1 and 24 • 3. Centrifuge dilution plates 1200 rpm briefly
Cell Plate • 1. Aspirate columns which will have the standards from the cell plates in the hood using 16-pin aspirator
Prepare Human Neutrophil Elastase (hNE) • 1. Prepare 1 μg/mL Human Neutrophil Elastase by diluting in 1% Blocker A. • a. Small 100 μg vial—add 1 mL PBS (100 μg/mL) • i. This can then be diluted 1:100 in 1% Assay Buffer for a final 1 μg/mL concentration
MSD—Add hNE (20 μL/well) • 1. After the MSD plate has blocked for at least 1 hour, wash plate 1× with 50 μL Wash buffer (PBS+0.5% Tween 20) and then add 20 μL hNE to each well
Bravo—Cell Plate—Dilution Plate—MSD Plate
Using the Bravo aspirate 10 μL from the cell plate, transfer to the dilution plate (9-fold dilution)
• 1. Mix 25 μL 3×, then aspirate 5 μL, transfer to MSD plate (5-fold dilution) • 2. Mix 10 μL 3×. Total dilution is 45 fold. • 3. Shake plates at 600 rpm for 1.5 hours
Add Functional detection hNE antibody • 1. Wash plate 1× with wash buffer • 2. […]

SMILES	EC50 [µM]
C[C@@H](O)C(=O)N1CC2(CC(c3c(C4CCOCC4)n(-c4ccc(F)c(F)c4)c4cc5cn[nH]c5cc34)C2)C1 [Compound 185, (2R)-1-[6-[5-(3,4-difluorophenyl)-6-tetrahydropyran-4-yl-1H-pyrrolo[2,3-f]indazol-7-yl]-2-azaspiro[3.3]heptan-2-yl]-2-hydroxy-propan-1-one]	1.16 to 3
O=C(O)CCc1c(C2CCOCC2)n(-c2ccc(F)c(F)c2)c2cc3cn[nH]c3cc12 [Compound 64, 3-[5-(3,4-difluorophenyl)-6-tetrahydropyran-4-yl-1H-pyrrolo[2,3-f]indazol-7-yl]propanoic Acid]	> 3
O=C(O)C1CC2(C1)CC(c1c(C3CCOCC3)n(-c3ccc(F)cc3)c3cc4cn[nH]c4c(F)c13)C2 (single isomer, unassigned) [Compound 137, 6-[8-fluoro-5-(4-fluorophenyl)-6-tetrahydropyran-4-yl-1H-pyrrolo[2,3-f]indazol-7-yl]spiro[3.3]heptane-2-carboxylic acid]	< 1.16
N#CCCc1c(C2CCOCC2)n(-c2ccc(F)cc2)c2cc3cn[nH]c3cc12 [Compound 146]	1.16 to 3
CS(=O)(=O)CCc1c(C2CCOCC2)n(-c2ccc(F)cc2)c2cc3cn[nH]c3cc12 [Compound 151]	1.16 to 3
CC(C)c1c(CCC(=O)N[C@@H]2C(=O)NC[C@H]2O)c2cc3[nH]ncc3cc2n1-c1ccc(F)cc1 (stereo in doubt) [Compound 211, 3-[5-(4-fluorophenyl)-6-isopropyl-1H-pyrrolo[2,3-f]indazol-7-yl]-N-[(3S,4R)-4-hydroxy-2-oxo-pyrrolidin-3-yl]propanamide]	> 3
C=C(C)c1c(C23CC(C(=O)OC)(C2)C3)c2cc3[nH]ncc3cc2n1-c1ccc(F)cc1 [Compound 207, methyl 3-[5-(4-fluorophenyl)-6-isopropenyl-1H-pyrrolo[2,3-f]indazol-7-yl]bicyclo[1.1.1]pentane-1-carboxylate]	> 3
O=C(O)[C@H]1C[C@@H](Cc2c(C3CCOCC3)n(-c3ccc(F)c(F)c3)c3cc4cn[nH]c4cc23)C1 (single isomer, unassigned) [Compound 72]	1.16 to 3
COCC(C)(C)c1c(CCCN)c2cc3[nH]ncc3cc2n1-c1ccc(F)cc1 [Compound 179]	> 3
Cc1cc(-n2c(C3CCOCC3)c(CCC(=O)O)c3cc4[nH]nc(C)c4cc32)ccc1F [Compound 125, 3-[5-(4-fluoro-3-methyl-phenyl)-3-methyl-6-tetrahydropyran-4-yl-1H-pyrrolo[2,3-f]indazol-7-yl]propanoic Acid]	> 3
CC(C)(C)c1c(C#N)c2cc3[nH]ncc3cc2n1-c1ccc(F)cc1 [Compound 143, 6-tert-butyl-5-(4-fluorophenyl)-1H-pyrrolo[2,3-f]indazole-7-carbonitrile]	> 3
Cc1cc(-n2c(C3CCOCC3)c([C@H]3C[C@@H](CC(=O)O)C3)c3cc4[nH]ncc4cc32)ccc1F (single isomer, unassigned) [Compound 95]	1.16 to 3
O=C(O)[C@H]1CC[C@H](Cc2c(C3CCOCC3)n(-c3ccc(F)c(Cl)c3)c3cc4cn[nH]c4cc23)CC1 [Compound 84]	1.16 to 3
O=C(O)[C@H]1C[C@H](Cc2c(C3CCOCC3)n(-c3ccc(F)cc3)c3cc4cn[nH]c4cc23)C1 [Compound 118]	> 3
O=C(O)[C@H]1CC[C@H](c2c(C3CCOCC3)n(-c3ccc(F)cc3)c3cc4cn[nH]c4cc32)CC1 [Compound 120]	< 1.16
CCS(=O)(=O)CCc1c(C2CCOCC2)n(-c2ccc(F)cc2)c2cc3cn[nH]c3cc12 [Compound 158, 7-(2-ethylsulfonylethyl)-5-(4-fluorophenyl)-6-tetrahydropyran-4-yl-1H-pyrrolo[2,3-f]indazole]	> 3
COC(=O)C1CC2(C1)CC(c1c(C3CCOCC3)n(-c3ccc(F)c(C)c3)c3cc4cn[nH]c4cc13)C2 (racemic) [Compound 89]	> 3
CC1(c2c(S(C)(=O)=O)c3cc4[nH]ncc4cc3n2-c2ccc(F)cc2)COC1 [Compound 197, 5-(4-fluorophenyl)-6-(3-methyloxetan-3-yl)-7-methylsulfonyl-1H-pyrrolo[2,3-f]indazole]	> 3

Continued, values first:

EC50 [µM]	SMILES
< 1.16	[2H]C([2H])(C(=O)O)C([2H])([2H])c1c(C(C)C)n(-c2ccc(F)cc2)c2cc3cn[nH]c3cc12 [Compound 171, 2,2,3,3-tetradeuterio-3-[5-(4-fluorophenyl)-6-isopropyl-1H-pyrrolo[2,3-f]indazol-7-yl]propanoic Acid]
< 1.16	Cc1cc(-n2c(C(C)C)c(C3CC4(CC(C(=O)O)C4)C3)c3cc4[nH]ncc4cc32)ccc1F (single isomer, unassigned) [Compound 25]
< 1.16	Cc1cc(-n2c(C(C)C)c(C3CC4(CC(C(=O)O)C4)C3)c3cc4[nH]ncc4cc32)ccc1F (racemic) [Compound 24]
< 1.16	Cc1cc(-n2c(C3CCOCC3)c([C@H]3C[C@](C)(C(=O)O)C3)c3cc4[nH]ncc4cc32)ccc1F (single isomer, unassigned) [Compound 104]
1.16 to 3	Cc1cc(-n2c(C(C)C)c(C(=O)O)c3cc4[nH]ncc4cc32)ccc1F [Compound 3, 5-(4-fluoro-3-methyl-phenyl)-6-isopropyl-1H-pyrrolo[2,3-f]indazole-7-carboxylic Acid]
1.16 to 3	CC(C)c1c(CCC(=O)O)c2cc3[nH]ncc3cc2n1-c1ccc(F)cc1 [Compound 32, 3-[5-(4-fluorophenyl)-6-isopropyl-1H-pyrrolo[2,3-f]indazol-7-yl]propanoic Acid]
> 3	CCOC(=O)c1c(C(C)C)n(-c2ccc(F)c(C)c2)c2cc3cn[nH]c3cc12 [Compound 2, ethyl 5-(4-fluoro-3-methyl-phenyl)-6-isopropyl-1H-pyrrolo[2,3-f]indazole-7-carboxylate]
< 1.16	CC(C)c1c(CC2(C(=O)O)CC2)c2cc3[nH]ncc3cc2n1-c1ccc(F)cc1 [Compound 33, 1-[[5-(4-fluorophenyl)-6-isopropyl-1H-pyrrolo[2,3-f]indazol-7-yl]methyl]cyclopropanecarboxylic Acid]
> 3	Cc1cc(-n2c(C(C)C)c(C(=O)N3CCOCC3)c3cc4[nH]ncc4cc32)ccc1F [Compound 4, [5-(4-fluoro-3-methyl-phenyl)-6-isopropyl-1H-pyrrolo[2,3-f]indazol-7-yl]-morpholino-methanone]
< 1.16	Cc1cc(-n2c(C(C)C)c(C3CC3C(=O)O)c3cc4[nH]ncc4cc32)ccc1F (single isomer, unassigned) [Compound 13, 2-[5-(4-fluoro-3-methyl-phenyl)-6-isopropyl-1H-pyrrolo[2,3-f]indazol-7-yl]cyclopropanecarboxylic acid]
1.16 to 3	[2H]C(C(=O)O)C([2H])c1c(C(C)C)n(-c2ccc(F)cc2)c2cc3cn[nH]c3cc12 (stereo not drawn) [Compound 167, 2,3-dideuterio-3-[5-(4-fluorophenyl)-6-isopropyl-1H-pyrrolo[2,3-f]indazol-7-yl]propanoic Acid]
< 1.16	Cc1cc(-n2c(C(C)C)c(CC3(C(=O)O)CC3)c3cc4[nH]ncc4cc32)ccc1F [Compound 17, 1-[[5-(4-fluoro-3-methyl-phenyl)-6-isopropyl-1H-pyrrolo[2,3-f]indazol-7-yl]methyl]cyclopropanecarboxylic Acid]
